Results taken from ChEMBL document CHEMBL1152667, “Synthesis and radiopharmacological investigation of 3-[4'-[(18)F]fluorobenzylidene]indolin-2-one as possible tyrosine kinase inhibitor” (Bioorg Med Chem, 2009).

Key:
[1] = target: Vascular endothelial growth factor receptor 2 (Homo sapiens, UniProt P35968); experiment: Inhibition of FLK1
cells = details: Endothelial cell

Vascular endothelial growth factor receptor 2, sequence (P35968 whole entry): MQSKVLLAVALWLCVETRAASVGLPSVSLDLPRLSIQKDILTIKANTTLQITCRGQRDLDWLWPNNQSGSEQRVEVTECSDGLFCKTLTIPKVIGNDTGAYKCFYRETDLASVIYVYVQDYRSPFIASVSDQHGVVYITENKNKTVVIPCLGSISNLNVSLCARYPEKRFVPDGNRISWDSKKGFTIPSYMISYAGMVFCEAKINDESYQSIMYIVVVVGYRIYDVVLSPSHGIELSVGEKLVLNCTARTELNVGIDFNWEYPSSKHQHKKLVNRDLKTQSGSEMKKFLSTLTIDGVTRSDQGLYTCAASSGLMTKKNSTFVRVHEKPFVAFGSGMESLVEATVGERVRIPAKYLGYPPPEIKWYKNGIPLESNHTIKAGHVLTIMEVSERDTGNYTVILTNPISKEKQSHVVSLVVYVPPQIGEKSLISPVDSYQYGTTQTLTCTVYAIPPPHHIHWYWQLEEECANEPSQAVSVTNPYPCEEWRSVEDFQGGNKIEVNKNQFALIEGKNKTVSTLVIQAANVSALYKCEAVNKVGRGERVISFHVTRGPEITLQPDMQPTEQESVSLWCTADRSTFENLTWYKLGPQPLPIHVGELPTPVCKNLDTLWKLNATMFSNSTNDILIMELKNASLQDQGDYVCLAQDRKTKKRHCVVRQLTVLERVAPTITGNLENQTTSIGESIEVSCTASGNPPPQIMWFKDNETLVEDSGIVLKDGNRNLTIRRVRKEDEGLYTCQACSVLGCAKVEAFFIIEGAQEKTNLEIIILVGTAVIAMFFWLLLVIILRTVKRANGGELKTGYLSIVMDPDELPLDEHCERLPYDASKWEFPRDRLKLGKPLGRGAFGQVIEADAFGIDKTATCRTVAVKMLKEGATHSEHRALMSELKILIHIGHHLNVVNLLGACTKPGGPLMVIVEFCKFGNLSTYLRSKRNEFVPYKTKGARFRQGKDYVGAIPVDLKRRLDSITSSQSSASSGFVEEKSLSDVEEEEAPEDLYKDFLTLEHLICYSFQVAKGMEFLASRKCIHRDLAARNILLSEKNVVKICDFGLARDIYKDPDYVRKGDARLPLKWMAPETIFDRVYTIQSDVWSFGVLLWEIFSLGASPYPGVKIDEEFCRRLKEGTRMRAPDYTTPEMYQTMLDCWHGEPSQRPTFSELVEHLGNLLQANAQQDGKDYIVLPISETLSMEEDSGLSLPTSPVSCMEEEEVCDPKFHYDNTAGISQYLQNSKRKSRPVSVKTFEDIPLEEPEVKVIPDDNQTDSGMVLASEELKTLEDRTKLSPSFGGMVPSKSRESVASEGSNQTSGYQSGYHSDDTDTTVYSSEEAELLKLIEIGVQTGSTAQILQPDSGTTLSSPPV

| Structure (SMILES) | IC50 [1] [µM] | IC50 (cells) [µM] |
| --- | --- | --- |
| O=C1Nc2ccccc2/C1=C/c1ccc(F)cc1 | 9.6 | 5.1 |
| Cc1cc(C)c(/C=C2\C(=O)Nc3ccccc32)[nH]1 [SEMAXANIB] | – | < 0.8 |
